In patent US20240294551A1 (AMGEN INC., priority 2022, published 2024):

How the values were obtained:
[1] = target: His-tagged KRAS G12D protein (Homo sapiens (Human), UniProt P01116, G12D); assay: KRAS G12D TR-FRET Assay; assay type: binding; settings: read-out: KRAS G12D Binding IC50
Procedure, shortened: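 His-tagged KRAS G12D (diluted to 20 nM in pH 7.4 HEPES buffer with 10 mM MgCl2 and 10 μM GDP) was preincubated with titrated compound for 30 min at room temperature. Biotinylated KRPep-2d peptide (diluted to 20 nM) was then added for 1 h, and displacement was monitored by TR-FRET.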

[2] = target: GDP-bound KRAS protein (aa 1-169), containing both G12D and C118A amino acid substitutions (Homo sapiens (Human), UniProt P01116, C118A/G12D); assay: KRAS G12D Coupled Nucleotide Exchange Assay; assay type: biochemical; settings: read-out: KRAS G12D Coupled Exchange IC50
[3] = tested on: Phosphorylation of ERK1/2 in AsPC-1 cells; assay: Phospho-ERK1/2 MSD Assay; assay type: cell-based, human; settings: Homo sapiens, ASPC1, 2 h, read-out: 2 h p-ERK (AsPC-1 cells), IC50
Procedure, shortened: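 Read-out: MSD electrochemiluminescent detection of phosphorylated ERK1/2 in whole-cell lysates, fitted to a 4-parameter logistic curve for IC50. Prior to lysis, AsPC-1 cells (25,000 per well) received a 2 h compound dose-response at 37 °C.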

AsPC-1 cells = assay: AsPC-1 CTG Assay (CellTiter-Glo cell viability); assay type: cell-based, human; settings: Homo sapiens, ASPC1, 72 h, AsPC-1, 72 h; first value of the cell; read-out: G12D/C/V Cell Proliferation CTG (72 h) AsPC-1
Procedure, shortened: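 Human pancreatic AsPC-1 or colon SW620 cells in RPMI 1640 with 10% FBS, seeded overnight, then exposed to serially diluted compound for 72 h at 37 °C. CellTiter-Glo luminescence normalized to DMSO control; IC50 from a 4-parameter logistic model.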

SW620 cells = assay: SW620 CTG Assay (CellTiter-Glo cell viability); assay type: cell-based, human; settings: Homo sapiens, SW-620; SW620, 72 h; third value of the cell; read-out: G12D/C/V Cell Proliferation CTG (72 h) SW620
Protocol: AsPC-1 and SW620 CTG Assay Protocols
AsPC-1 (human pancreatic adenocarcinoma; ATCC CRL-1682) or SW620 (human colon adenocarcinoma; ATCC CCL-227) cells were cultured in RPMI 1640 medium containing 10% fetal bovine serum and 1× penicillin/streptomycin/L-glutamine. Cells were seeded in 384-well plates at a density of 3.33E+04 cells/mL and incubated at 37° C., 5% CO2, overnight. Serially-diluted compound or DMSO was added to the cells, and plates were incubated at 37° C., 5% CO2 for 72 h. Cell viability was measured using a CellTiter-Glo® Luminescent Cell Viability Assay kit (Promega) according to the manufacturer's protocol. The luminescence signal of treated samples was normalized to DMSO control, and data were analyzed using a 4-parameter logistic model to calculate IC50 values.

Sequence of His-tagged KRAS G12D protein (P01116 other isoform, or with tags, fused parts or gaps G12D): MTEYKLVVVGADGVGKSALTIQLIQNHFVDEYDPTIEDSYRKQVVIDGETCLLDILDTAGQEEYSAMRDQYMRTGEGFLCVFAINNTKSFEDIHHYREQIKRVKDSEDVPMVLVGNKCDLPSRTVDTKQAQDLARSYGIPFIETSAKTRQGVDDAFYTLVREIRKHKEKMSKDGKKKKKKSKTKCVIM
Sequence of GDP-bound KRAS protein (aa 1-169), containing both G12D and C118A amino acid substitutions (P01116 other isoform, or with tags, fused parts or gaps G12D/C118A): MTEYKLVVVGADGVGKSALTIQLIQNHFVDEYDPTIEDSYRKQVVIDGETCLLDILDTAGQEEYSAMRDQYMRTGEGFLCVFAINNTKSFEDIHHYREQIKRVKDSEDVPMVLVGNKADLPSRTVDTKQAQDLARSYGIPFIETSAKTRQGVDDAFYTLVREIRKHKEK

Compound	IC50 [1] [nM]	IC50 [2] [nM]	IC50 [3] [nM]	IC50 (AsPC-1 cells) [nM]	IC50 (SW620 cells) [nM]
Fc1c2ncc3c(nc(OC[C@@]45CCCN4C[C@H](F)C5)nc13)N1CCOC[C@@H](COCCCCc3c(Cl)cc4[nH]ncc4c3-2)C1 (single isomer, unassigned) [Example 137]	4	2	47	420	96.7
C[C@@]12CCCN(C1)c1nc(OC[C@@]34CCCN3C[C@H](F)C4)nc3c(F)c(ncc13)-c1cccc3ccc(F)c(c13)CC[C@H](F)C(=O)N2 [Example 12, (15R,18S)-18,22,31-trifluoro-8-(((2R,7aS)-2-fluorotetrahydro-1H-pyrrolo[1,2-a]pyrrol-7a(5H)-yl)methoxy)-15-methyl-3,7,9,11,16-pentaazahexacyclo[19.7.1.1˜2,6˜.1˜11,15˜.0˜5,10˜.0˜25,29˜]hentriaconta-1(28),2(31),3,5,7,9,21,23,25(29),26-decaen-17-one]	6	3	52	490	427
Cc1cc2[nH]ncc2c2c1CCCOC(=O)O[C@@H]1CCCN(C1)c1nc(OC[C@@]34CCCN3C[C@H](F)C4)nc3c(F)c-2ncc13 [Example 38, (17R)-30-Fluoro-24-(((2R,7aS)-2-fluorotetrahydro-1H-pyrrolo[1,2-a]pyrrol-7a(5H)-yl)methoxy)-9-methyl-14,16-dioxa-5,6,21,23,25,29-hexaazahexacyclo[24.3.1.1˜17,21˜.0˜2,10˜.0˜3,7˜.0˜22,27˜]hentriaconta-1(30),2,4,7,9,22,24,26,28-nonaen-15-one bis(2,2,2-trifluoroacetate)]	2	2	20	443	76
CN1C(=O)CCCCc2c(Cl)cc3[nH]ncc3c2-c2ncc3c(nc(OC[C@@]45CCCN4C[C@H](F)C5)nc3c2F)N2CCC[C@@H]1C2 [Example 53, (17R)-9-chloro-30-fluoro-24-(((2R,7aS)-2-fluorotetrahydro-1H-pyrrolo[1,2-a]pyrrol-7a(5H)-yl)methoxy)-16-methyl-5,6,16,21,23,25,29-heptaazahexacyclo[24.3.1.1~17,21~.0~2,10~.0~3,7~.0~22,27~]hentriaconta-1(30),2,4,7,9,22,24,26,28-nonaen-15-one]	8	4	74	480	150
O=C1CCCCc2c(Cl)cc3[nH]ncc3c2-c2ncc3c(nc(OC[C@@]45CCCN4C[C@H](F)C5)nc3c2F)N2CC[C@H]3CCN1[C@H]3C2 [Example 62, (28S,32R)-18-chloro-33-fluoro-4-(((2R,7aS)-2-fluorotetrahydro-1H-pyrrolo[1,2-a]pyrrol-7a(5H)-yl)methoxy)-1,3,5,9,14,15,25-heptaazaheptacyclo[23.5.2.1~6,10~.0~2,7~.0~11,19~.0~12,16~.0~28,32~]tritriaconta-2,4,6,8,10(33),11,13,16,18-nonaen-24-one]	3	2	4	70	10
O=C1OCCCc2c(Cl)cc3[nH]ncc3c2-c2ncc3c(nc(OC[C@@]45CCCN4C[C@H](F)C5)nc3c2F)N2CCCC[C@H](C2)O1 [Example 100, (26R)-18-chloro-32-fluoro-4-(((2R,7aS)-2-fluorotetrahydro-1H-pyrrolo[1,2-a]pyrrol-7a(5H)-yl)methoxy)-23,25-dioxa-1,3,5,9,14,15-hexaazahexacyclo[24.4.1.1~6,10~.0~2,7~.0~11,19~.0~12,16~]dotriaconta-2,4,6,8,10(32),11,13,16,18-nonaen-24-one]	2	1	4	60	10
O=C1OCCCc2c(F)cc3[nH]ncc3c2-c2ncc3c(nc(OC[C@@]45CCCN4C[C@H](F)C5)nc3c2F)N2CCC[C@H](C2)O1 [Example 112]	5	3	48	360	137
Fc1c2ncc3c(nc(OC[C@@]45CCCN4C[C@H](F)C5)nc13)N1CCCC(C1)c1cnn(n1)CCCc1c(Cl)cc3[nH]ncc3c1-2 (some centres unmarked) [Example 148]	7	5	42	460	165
Fc1c2ncc3c(nc(OC[C@@]45CCCN4C[C@H](F)C5)nc13)N1CCCC(C1)c1cnn(n1)C/C=C/c1c(Cl)cc3[nH]ncc3c1-2 (some centres unmarked) [Example 149]	60	34	33	470	154
Cc1cc2[nH]ncc2c2c1[C@H]1C[C@H]1COCC[C@@H]1CCCN(C1)c1nc(OC[C@@]34CCCN3C[C@H](F)C4)nc3c(F)c-2ncc13 [Example 153, (11S,13R,18S)-31-fluoro-25-(((2R,7aS)-2-fluorotetrahydro-1H-pyrrolo[1,2-a]pyrrol-7a(5H)-yl)methoxy)-9-methyl-15-oxa-5,6,22,24,26,30-hexaazaheptacyclo[25.3.1.1~18,22~.0~2,10~.0~3,7~.0~11,13~.0~23,28~]dotriaconta-1(31),2,4,7,9,23,25,27,29-nonaene]	3	3	9	210	32.5

Next, values leading:

IC50 [1] [nM]	IC50 [2] [nM]	IC50 [3] [nM]	IC50 (AsPC-1 cells) [nM]	IC50 (SW620 cells) [nM]	Compound
4	2	16.8	114	66	Cc1cc2[nH]ncc2c2c1CCOC(=O)O[C@H]1C[C@]3(CCCN(C3)c3nc(OC[C@@H]4CCCN4C)nc4c(F)c-2ncc34)C1 (single isomer, unassigned) [Example 326]
6	5	52	720	302	Fc1c2ncc3c(nc(OC[C@@]45CCCN4C[C@H](F)C5)nc13)N1CCC[C@H](C1)Cn1ncc(n1)/C=C\c1c(Cl)cc3[nH]ncc3c1-2 [Example 155, (11Z,18R)-9-chloro-31-fluoro-25-(((2R,7aS)-2-fluorotetrahydro-1H-pyrrolo[1,2-a]pyrrol-7a(5H)-yl)methoxy)-5,6,15,16,22,24,26,30,33-nonaazaheptacyclo[25.3.1.1~13,16~.1~18,22~.0~2,10~.0~3,7~.0~23,28~]tritriaconta-1(31),2,4,7,9,11,13(33),14,23,25,27,29-dodecaen]
12	3	110	720	367	Fc1c2ncc3c(nc(OC[C@@]45CCCN4C[C@H](F)C5)nc13)N1CCC[C@H](C1)Cn1ncc(n1)CCc1c(Cl)cc3[nH]ncc3c1-2 [Example 156, (18R)-9-chloro-31-fluoro-25-(((2R,7aS)-2-fluorotetrahydro-1H-pyrrolo[1,2-a]pyrrol-7a(5H)-yl)methoxy)-5,6,15,16,22,24,26,30,33-nonaazaheptacyclo[25.3.1.1~13,16~.1~18,22~.0~2,10~.0~3,7~.0~23,28~]tritriaconta-1(31),2,4,7,9,13(33),14,23,25,27,29-undecaene]
4	3	15.7	46	22	Fc1c2ncc3c(nc(OC[C@@]45CCCN4C[C@H](F)C5)nc13)N1CCOC[C@H](C1)OC(=S)OCCCc1c(Cl)cc3[nH]ncc3c1-2 [Example 199, (26S)-18-chloro-32-fluoro-4-(((2R,7aS)-2-fluorotetrahydro-1H-pyrrolo[1,2-a]pyrrol-7a(5H)-yl)methoxy)-23,25,28-trioxa-1,3,5,9,14,15-hexaazahexacyclo[24.4.1.1~6,10~.0~2,7~.0~11,19~.0~12,16~]dotriaconta-2,4,6,8,10(32),11,13,16,18-nonaene-24-thione]
	1	8	117	31	CN(C)CC1(COc2nc3c4cnc(c(F)c4n2)-c2c(c(Cl)cc4[nH]ncc24)CCOC(=O)O[C@H]2C[C@]4(CCCN3C4)C2)CC1 [Example 334, (1S,3R)-10-chloro-24-((1-((dimethylamino)methyl)cyclopropyl)methoxy)-32-fluoro-4,6-dioxa-13,14,19,23,25,27-hexaazaheptacyclo[25.3.1.1~1,3~.1~18,22~.0~9,17~.0~12,16~.0~21,26~]tritriaconta-9,11,14,16,18(32),19,21,23,25-nonaen-5-one]
